Key:
Format in all cases: functional
CCRF-CEM = assay: Anticancer activity against human CCRF-CEM cells after 48 hrs by sulforhodamine B assay; settings: Homo sapiens, CCRF-CEM, 48 h
K562 = assay: Anticancer activity against human K562 cells after 48 hrs by sulforhodamine B assay; settings: Homo sapiens, K562, 48 h
HOP-62 = assay: Anticancer activity against human HOP62 cells after 48 hrs by sulforhodamine B assay; settings: Homo sapiens, HOP-62, 48 h
HOP-92 = assay: Anticancer activity against human HOP92 cells after 48 hrs by sulforhodamine B assay; settings: Homo sapiens, HOP-92, 48 h
COLO 205 = assay: Anticancer activity against human COLO205 cells after 48 hrs by sulforhodamine B assay; settings: Homo sapiens, COLO 205, 48 h
HCC 2998 = assay: Anticancer activity against human HCC2998 cells after 48 hrs by sulforhodamine B assay; settings: Homo sapiens, HCC 2998, 48 h
HCT-116 = assay: Anticancer activity against human HCT116 cells after 48 hrs by sulforhodamine B assay; settings: Homo sapiens, HCT-116, 48 h
KM12 = assay: Anticancer activity against human KM12 cells after 48 hrs by sulforhodamine B assay; settings: Homo sapiens, KM12, 48 h
SW-620 = assay: Anticancer activity against human SW620 cells after 48 hrs by sulforhodamine B assay; settings: Homo sapiens, SW-620, 48 h
SF-268 = assay: Anticancer activity against human SF268 cells after 48 hrs by sulforhodamine B assay; settings: Homo sapiens, SF-268, 48 h
SF-539 = assay: Anticancer activity against human SF539 cells after 48 hrs by sulforhodamine B assay; settings: Homo sapiens, SF-539, 48 h
SNB-19 = assay: Anticancer activity against human SNB19 cells after 48 hrs by sulforhodamine B assay; settings: Homo sapiens, SNB-19, 48 h
SNB-75 = assay: Anticancer activity against human SNB75 cells after 48 hrs by sulforhodamine B assay; settings: Homo sapiens, SNB-75, 48 h
U-251 = assay: Anticancer activity against human U251 cells after 48 hrs by sulforhodamine B assay; settings: Homo sapiens, U-251, 48 h
LOX IMVI = assay: Anticancer activity against human LOXIMVI cells after 48 hrs by sulforhodamine B assay; settings: Homo sapiens, LOX IMVI, 48 h
Malme-3M = assay: Anticancer activity against human MALME-3M cells after 48 hrs by sulforhodamine B assay; settings: Homo sapiens, Malme-3M, 48 h
M14 = assay: Anticancer activity against human M14 cells after 48 hrs by sulforhodamine B assay; settings: Homo sapiens, M14, 48 h
SK-MEL-28 = assay: Anticancer activity against human SK-MEL-28 cells after 48 hrs by sulforhodamine B assay; settings: Homo sapiens, SK-MEL-28, 48 h
IGROV-1 = assay: Anticancer activity against human IGROV1 cells after 48 hrs by sulforhodamine B assay; settings: IGROV-1, 48 h
OVCAR-3 = assay: Anticancer activity against human OVCAR-3 cells after 48 hrs by sulforhodamine B assay; settings: Homo sapiens, OVCAR-3, 48 h
OVCAR-5 = assay: Anticancer activity against human OVCAR5 cells after 48 hrs by sulforhodamine B assay; settings: Homo sapiens, OVCAR-5, 48 h
786-0 = assay: Anticancer activity against human 786-0 cells after 48 hrs by sulforhodamine B assay; settings: Homo sapiens, 786-0, 48 h
CAKI-1 = assay: Anticancer activity against human Caki1 cells after 48 hrs by sulforhodamine B assay; settings: Homo sapiens, CAKI-1, 48 h
SN12C = assay: Anticancer activity against human SN12C cells after 48 hrs by sulforhodamine B assay; settings: Homo sapiens, SN12C, 48 h
TK-10 = assay: Anticancer activity against human TK10 cells after 48 hrs by sulforhodamine B assay; settings: Homo sapiens, TK-10, 48 h
UO-31 = assay: Anticancer activity against human UO31 cells after 48 hrs by sulforhodamine B assay; settings: Homo sapiens, UO-31, 48 h
PC-3 = assay: Anticancer activity against human PC3 cells after 48 hrs by sulforhodamine B assay; settings: Homo sapiens, PC-3, 48 h
DU-145 = assay: Anticancer activity against human DU145 cells after 48 hrs by sulforhodamine B assay; settings: Homo sapiens, DU-145, 48 h
NCI/ADR-RES = assay: Anticancer activity against human NCI/ADR-RES cells after 48 hrs by sulforhodamine B assay; settings: Homo sapiens, NCI/ADR-RES, 48 h
[1] = Anticancer activity against human Hs 578T cells after 48 hrs by sulforhodamine B assay; settings: Homo sapiens, Hs-578T, 48 h
BT-549 = assay: Anticancer activity against human BT549 cells after 48 hrs by sulforhodamine B assay; settings: Homo sapiens, BT-549, 48 h
T47D = assay: Anticancer activity against human T47D cells after 48 hrs by sulforhodamine B assay; settings: Homo sapiens, T47D, 48 h
[2] = read-out: LC50 (the source's name)

Q: Which results are given for CCCCCCCCCCCCCCCC[n+]1ccn(C)c1.[Cl-]?
A: GI50 (CCRF-CEM): 164 nM; GI50 (K562): 190 nM; CC50 (K562; [2]): 3490 nM; GI50 (HOP-62): 1170 nM; CC50 (HOP-62; [2]): 6890 nM; GI50 (HOP-92): 1020 nM; CC50 (HOP-92; [2]): 7300 nM; GI50 (COLO 205): 343 nM; CC50 (COLO 205; [2]): > 100000 nM; GI50 (HCC 2998): 192 nM; CC50 (HCC 2998; [2]): 7290 nM; GI50 (HCT-116): 349 nM; CC50 (HCT-116; [2]): 6220 nM; GI50 (KM12): 357 nM; CC50 (KM12; [2]): 3570 nM; GI50 (SW-620): 461 nM; GI50 (SF-268): 1020 nM; CC50 (SF-268; [2]): 4930 nM; GI50 (SF-539): 1340 nM; GI50 (SNB-19): 1220 nM; CC50 (SNB-19; [2]): 9590 nM; GI50 (SNB-75): 555 nM; CC50 (SNB-75; [2]): 5650 nM; GI50 (U-251): 334 nM; CC50 (U-251; [2]): 3870 nM; GI50 (LOX IMVI): 334 nM; CC50 (LOX IMVI; [2]): 3780 nM; GI50 (Malme-3M): 549 nM; GI50 (M14): 343 nM; GI50 (SK-MEL-28): 948 nM; GI50 (IGROV-1): 48 nM; CC50 (IGROV-1; [2]): > 100000 nM; GI50 (OVCAR-3): 414 nM; GI50 (OVCAR-5): 912 nM; CC50 (OVCAR-5; [2]): 7240 nM; GI50 (786-0): 1180 nM; GI50 (CAKI-1): 385 nM; GI50 (SN12C): 1000 nM; GI50 (TK-10): 295 nM; GI50 (UO-31): 1100 nM; GI50 (PC-3): 268 nM; CC50 (PC-3; [2]): 3860 nM; GI50 (DU-145): 719 nM; CC50 (DU-145; [2]): 4480 nM; GI50 (NCI/ADR-RES): 2100 nM; GI50 [1]: 538 nM; CC50 [1, 2]: 6110 nM; GI50 (BT-549): 1040 nM; CC50 (BT-549; [2]): 5920 nM; GI50 (T47D): 564 nM; CC50 (T47D; [2]): > 100000 nM
